Measured values reported in patent publication US11806341B2, “Methods of diagnosing and treating anxiety disorder” (THE CHILDREN'S HOSPITAL OF PHILADELPHIA, priority 2015, dated 2023).
“Also recorded” adds a separate entry of the source.

Experiments:
[1] = test system: dementia-related cognitive impairment; settings: Phase I-III trials, dementia-related indications; cited from earlier work
[2] = test system: adolescent subjects previously diagnosed with ADHD who also had at least one genetic alteration in an mGluR network gene; assay: Open-label Phase 1b clinical trial of NFC-1 in adolescent ADHD subjects with a CNV in an mGluR network gene; type: in vivo, human
[3] = test system: adolescent subjects previously diagnosed with ADHD who also had at least one genetic alteration in an mGluR network gene; settings: recently completed precision-medicine-based clinical trial; cited from earlier work
[4] = test system: group I and group II/III mGluRs; settings: Hirouchi 2000; cited from earlier work

O=C1CC[C@H](C(=O)N2CCCCC2)N1 [NFC-1, fasoracetam monohydrate]
safety and tolerability [1]: generally safe and well tolerated | OCD symptoms during therapy ([2]; eight of the 30 ADHD subjects with symptoms of OCD): OCD symptoms improved | dermatillomania symptoms (ear scratching, bleeding ulcer) during therapy ([2]; one subject with OCD and a history of ear scratching): dermatillomania symptoms had reduced | score on Vanderbilt Scale items related to anxiety (nos. 41, 42, and 47) ([2]; week 5, two subjects, all 3 items, at enrollment maximum score of 3 on 2 of the 3 items): 3 | total "never" score for all BRIEF anxiety/mood questions for all subjects ([2]; week 5 of dose escalation (50-400 mg bid), all 30 subjects, score at enrollment was 125): 191 | total "often" score for all BRIEF anxiety/mood questions for all subjects ([2]; week 5 of dose escalation (50-400 mg bid), all 30 subjects, score at enrollment was 154): 77

O=C1CC[C@H](C(=O)N2CCCCC2)N1 [fasoracetam]
treatment of ADHD in subjects having a genetic alteration in an mGluR network gene [3]: successfully treated | activation of mGluRs in vitro [4]: nonselective activator against all classes of mGluRs; also recorded: can stimulate both group I and group II/III mGluRs
